Assay results published in patent publication US12527325B2, “Pesticidally active diazine-amide compounds” (SYNGENTA CROP PROTECTION AG, priority 2019, dated 2026).

Columns and labels:
Assay type in all cases: in vivo
Plutella xylostella [1] = assay: Example B12: Plutella xylostella (Diamondback Moth), 96-well artificial diet; details: 216 h, application rate of 500 ppm, eggs, 9 days after infestation
Description: Example B12: Plutella xylostella (Diamondback Moth)
96-well microtiter plates containing artificial diet were treated with aqueous test solutions, prepared from 10′000 ppm DMSO stock solutions, by a liquid handling robot. After drying, eggs (˜30 per well) were infested onto a netted lid which was suspended above the diet. The eggs hatch and L1 larvae move down to the diet. The samples were assessed for mortality 9 days after infestation.

Spodoptera littoralis = assay: Example B9: Spodoptera littoralis (Egyptian Cotton Leaf Worm), cotton leaf disc spray; details: foliar, 72 h, application rate of 200 ppm, sprayed cotton leaf discs, L1 larvae, 3 days after infestation, read-out: control in at least one of the three categories (mortality, anti-feedant or growth inhibition)
Plutella xylostella [2] = assay: Example B5: Plutella xylostella (Diamond Back Moth); details: 192 h, application rate of 200 ppm, 24-well artificial diet, eggs, 8 days after infestation, read-out: control in at least one of the two categories (mortality or growth inhibition)
Description: Example B5: Plutella xylostella (Diamond Back Moth)
24-well microtiter plates with artificial diet were treated with aqueous test solutions prepared from 10′000 ppm DMSO stock solutions by pipetting. After drying, Plutella eggs were pipetted through a plastic stencil onto a gel blotting paper and the plate was closed with it. The samples were assessed for mortality and growth inhibition in comparison to untreated samples 8 days after infestation.

Chilo suppressalis = assay: Example B4: Chilo suppressalis (Striped Rice Stemborer); details: 144 h, application rate of 200 ppm, artificial diet, L2 larvae, 6 days after infestation, read-out: control in at least one of the three categories (mortality, anti-feedant or growth inhibition)
Description: Example B4: Chilo suppressalis (Striped Rice Stemborer)
24-well microtiter plates with artificial diet were treated with aqueous test solutions prepared from 10′000 ppm DMSO stock solutions by pipetting. After drying, the plates were infested with L2 larvae (6-8 per well). The samples were assessed for mortality, anti-feeding effect, and growth inhibition in comparison to untreated samples 6 days after infestation. Control of Chilo suppressalis by a test sample is given when at least one of the categories mortality, anti-feedant effect, and growth inhibition is higher than the untreated sample.

Diabrotica balteata = assay: Example B1: Diabrotica balteata (Corn Root Worm); details: 96 h, application rate of 200 ppm, sprayed maize sprouts, L2 larvae, 4 days after infestation, read-out: control in at least one of the two categories (mortality or growth inhibition)
Description: Example B1: Diabrotica balteata (Corn Root Worm)
Maize sprouts placed onto an agar layer in 24-well microtiter plates were treated with aqueous test solutions prepared from 10′000 ppm DMSO stock solutions by spraying. After drying, the plates were infested with L2 larvae (6 to 10 per well). The samples were assessed for mortality and growth inhibition in comparison to untreated samples 4 days after infestation.

CC(NC(=O)c1cc(C(F)(F)F)nc(C2(C#N)CC2)c1)c1nccnc1-c1ccc(Br)cn1 (centres unmarked) [P28, N-[1-[3-(5-bromo-2-pyridyl)pyrazin-2-yl]ethyl]-2-(1-cyanocyclopropyl)-6-(trifluoromethyl)pyridine-4-carboxamide]
≥ 80%: mortality at 500 ppm (Plutella xylostella [1]) | percent control (mortality, anti-feedant effect or growth inhibition) at 200 ppm (Spodoptera littoralis) | percent control (mortality or growth inhibition) at 200 ppm (Plutella xylostella [2]) | percent control (mortality, anti-feedant effect or growth inhibition) at 200 ppm (Chilo suppressalis) | percent control (mortality or growth inhibition) at 200 ppm (Diabrotica balteata)

CC(NC(=O)c1cc(C2CC2)cc(C(F)(F)F)c1)c1nccnc1-c1ncc(C2CC2)cn1 (centres unmarked) [P35, 3-cyclopropyl-N-[1-[3-(5-cyclopropylpyrimidin-2-yl)pyrazin-2-yl]ethyl]-5-(trifluoromethyl)benzamide]
≥ 80%: mortality at 500 ppm (Plutella xylostella [1]) | percent control (mortality, anti-feedant effect or growth inhibition) at 200 ppm (Spodoptera littoralis) | percent control (mortality or growth inhibition) at 200 ppm (Plutella xylostella [2]) | percent control (mortality, anti-feedant effect or growth inhibition) at 200 ppm (Chilo suppressalis) | percent control (mortality or growth inhibition) at 200 ppm (Diabrotica balteata)

CC(NC(=O)c1cc(C(F)(F)F)nc(C2(C#N)CC2)c1)c1nccnc1-c1ccc(Cl)cn1 (centres unmarked) [P16, N-[1-[3-(5-chloro-2-pyridyl)pyrazin-2-yl]ethyl]-2-(1-cyanocyclopropyl)-6-(trifluoromethyl)pyridine-4-carboxamide]
≥ 80%: mortality at 500 ppm (Plutella xylostella [1]) | percent control (mortality, anti-feedant effect or growth inhibition) at 200 ppm (Spodoptera littoralis) | percent control (mortality or growth inhibition) at 200 ppm (Plutella xylostella [2]) | percent control (mortality, anti-feedant effect or growth inhibition) at 200 ppm (Chilo suppressalis) | percent control (mortality or growth inhibition) at 200 ppm (Diabrotica balteata)

CC(NC(=O)c1cc(C2CC2)cc(C(F)(F)F)c1)c1nccnc1-c1ccc(Cl)cn1 (centres unmarked) [P18, N-[1-[3-(5-chloro-2-pyridyl)pyrazin-2-yl]ethyl]-3-cyclopropyl-5-(trifluoromethyl)benzamide]
≥ 80%: mortality at 500 ppm (Plutella xylostella [1]) | percent control (mortality or growth inhibition) at 200 ppm (Plutella xylostella [2]) | percent control (mortality, anti-feedant effect or growth inhibition) at 200 ppm (Chilo suppressalis)

CC(NC(=O)c1cc(C2CC2)cc(C(F)(F)F)c1)c1nccnc1-c1ncc(OC(F)F)cn1 (centres unmarked) [P34, 3-cyclopropyl-N-[1-[3-[5-(difluoromethoxy)pyrimidin-2-yl]pyrazin-2-yl]ethyl]-5-(trifluoromethyl)benzamide]
≥ 80%: mortality at 500 ppm (Plutella xylostella [1]) | percent control (mortality, anti-feedant effect or growth inhibition) at 200 ppm (Spodoptera littoralis) | percent control (mortality or growth inhibition) at 200 ppm (Plutella xylostella [2]) | percent control (mortality, anti-feedant effect or growth inhibition) at 200 ppm (Chilo suppressalis) | percent control (mortality or growth inhibition) at 200 ppm (Diabrotica balteata)

CC(NC(=O)c1cc(C(F)(F)F)cc(S(=O)(=O)C(F)(F)F)c1)c1nccnc1-c1ccccn1 (centres unmarked) [P13, N-[1-[3-(2-pyridyl)pyrazin-2-yl]ethyl]-3-(trifluoromethyl)-5-(trifluoromethylsulfonyl) benzamide]
≥ 80%: mortality at 500 ppm (Plutella xylostella [1]) | percent control (mortality, anti-feedant effect or growth inhibition) at 200 ppm (Spodoptera littoralis) | percent control (mortality or growth inhibition) at 200 ppm (Plutella xylostella [2]) | percent control (mortality, anti-feedant effect or growth inhibition) at 200 ppm (Chilo suppressalis) | percent control (mortality or growth inhibition) at 200 ppm (Diabrotica balteata)

CC(NC(=O)c1cc(C(F)(F)F)nc(C2(C#N)CC2)c1)c1nccnc1-c1ccc(F)cn1 (centres unmarked) [P27, 2-(1-cyanocyclopropyl)-N-[1-[3-(5-fluoro-2-pyridyl)pyrazin-2-yl]ethyl]-6-(trifluoromethyl)pyridine-4-carboxamide]
≥ 80%: mortality at 500 ppm (Plutella xylostella [1]) | percent control (mortality or growth inhibition) at 200 ppm (Plutella xylostella [2]) | percent control (mortality, anti-feedant effect or growth inhibition) at 200 ppm (Chilo suppressalis)

CC(NC(=O)c1cc(C(F)(F)F)cc(S(=O)(=O)C(F)(F)F)c1)c1nccnc1-c1ncc(C2CC2)cn1 (centres unmarked) [P11, N-[1-[3-(5-cyclopropylpyrimidin-2-yl)pyrazin-2-yl]ethyl]-3-(trifluoromethyl)-5-(trifluoromethylsulfonyl) benzamide]
≥ 80%: mortality at 500 ppm (Plutella xylostella [1]) | percent control (mortality, anti-feedant effect or growth inhibition) at 200 ppm (Spodoptera littoralis) | percent control (mortality or growth inhibition) at 200 ppm (Plutella xylostella [2]) | percent control (mortality, anti-feedant effect or growth inhibition) at 200 ppm (Chilo suppressalis)

CC(NC(=O)c1cc(C(F)(F)F)cc(C(F)(F)C2CC2)c1)c1nccnc1-c1ccccn1 (centres unmarked) [P20, 3-[cyclopropyl (difluoro)methyl]-N-[1-[3-(2-pyridyl)pyrazin-2-yl]ethyl]-5-(trifluoromethyl) benzamide]
≥ 80%: mortality at 500 ppm (Plutella xylostella [1]) | percent control (mortality, anti-feedant effect or growth inhibition) at 200 ppm (Spodoptera littoralis) | percent control (mortality or growth inhibition) at 200 ppm (Plutella xylostella [2]) | percent control (mortality, anti-feedant effect or growth inhibition) at 200 ppm (Chilo suppressalis) | percent control (mortality or growth inhibition) at 200 ppm (Diabrotica balteata)

CC(NC(=O)c1cc(C2CC2)cc(C(F)(F)F)c1)c1nccnc1-c1ccc(F)cn1 (centres unmarked) [P40, 3-cyclopropyl-N-[1-[3-(5-fluoro-2-pyridyl)pyrazin-2-yl]ethyl]-5-(trifluoromethyl)benzamide]
≥ 80%: mortality at 500 ppm (Plutella xylostella [1]) | percent control (mortality, anti-feedant effect or growth inhibition) at 200 ppm (Spodoptera littoralis) | percent control (mortality or growth inhibition) at 200 ppm (Plutella xylostella [2]) | percent control (mortality, anti-feedant effect or growth inhibition) at 200 ppm (Chilo suppressalis) | percent control (mortality or growth inhibition) at 200 ppm (Diabrotica balteata)

CC(NC(=O)c1cc(C(F)(F)F)cc(C2(C#N)CC2)c1)c1nccnc1-c1ccc(Cl)cn1 (centres unmarked) [P17, N-[1-[3-(5-chloro-2-pyridyl)pyrazin-2-yl]ethyl]-3-(1-cyanocyclopropyl)-5-(trifluoromethyl)benzamide]
≥ 80%: mortality at 500 ppm (Plutella xylostella [1]) | percent control (mortality, anti-feedant effect or growth inhibition) at 200 ppm (Spodoptera littoralis) | percent control (mortality or growth inhibition) at 200 ppm (Plutella xylostella [2]) | percent control (mortality, anti-feedant effect or growth inhibition) at 200 ppm (Chilo suppressalis) | percent control (mortality or growth inhibition) at 200 ppm (Diabrotica balteata)

CC(NC(=O)c1cc(C2CC2)cc(C(F)(F)F)c1)c1nccnc1-c1ccccn1 (centres unmarked) [P33, 3-cyclopropyl-N-[1-[3-(2-pyridyl)pyrazin-2-yl]ethyl]-5-(trifluoromethyl)benzamide]
≥ 80%: mortality at 500 ppm (Plutella xylostella [1]) | percent control (mortality or growth inhibition) at 200 ppm (Plutella xylostella [2]) | percent control (mortality, anti-feedant effect or growth inhibition) at 200 ppm (Chilo suppressalis) | percent control (mortality or growth inhibition) at 200 ppm (Diabrotica balteata)

CC(NC(=O)c1cc(C(F)(F)F)nc(C2(C#N)CC2)c1)c1nccnc1-c1ncc(C2CC2)cn1 (centres unmarked) [P36, 2-(1-cyanocyclopropyl)-N-[1-[3-(5-cyclopropylpyrimidin-2-yl)pyrazin-2-yl]ethyl]-6-(trifluoromethyl)pyridine-4-carboxamide]
≥ 80%: mortality at 500 ppm (Plutella xylostella [1]) | percent control (mortality, anti-feedant effect or growth inhibition) at 200 ppm (Spodoptera littoralis) | percent control (mortality or growth inhibition) at 200 ppm (Plutella xylostella [2]) | percent control (mortality, anti-feedant effect or growth inhibition) at 200 ppm (Chilo suppressalis) | percent control (mortality or growth inhibition) at 200 ppm (Diabrotica balteata)

CC(NC(=O)c1cc(C(F)(F)F)cc(S(=O)(=O)C(F)(F)F)c1)c1nccnc1-c1ccc(F)cn1 (centres unmarked) [P12, N-[1-[3-(5-fluoro-2-pyridyl)pyrazin-2-yl]ethyl]-3-(trifluoromethyl)-5-(trifluoromethylsulfonyl) benzamide]
≥ 80%: mortality at 500 ppm (Plutella xylostella [1]) | percent control (mortality, anti-feedant effect or growth inhibition) at 200 ppm (Chilo suppressalis)

C[C@H](NC(=O)c1cc(C(F)(F)F)cc(C(F)(F)C2CC2)c1)c1nccnc1-c1ccc(Br)cn1 [P42, N-[(1S)-1-[3-(5-bromo-2-pyridyl)pyrazin-2-yl]ethyl]-3-[cyclopropyl(difluoro)methyl]-5-(trifluoromethyl)benzamide]
≥ 80%: mortality at 500 ppm (Plutella xylostella [1]) | percent control (mortality, anti-feedant effect or growth inhibition) at 200 ppm (Spodoptera littoralis) | percent control (mortality or growth inhibition) at 200 ppm (Plutella xylostella [2]) | percent control (mortality, anti-feedant effect or growth inhibition) at 200 ppm (Chilo suppressalis) | percent control (mortality or growth inhibition) at 200 ppm (Diabrotica balteata)

CC(NC(=O)c1cc(C2CC2)cc(C(F)(F)F)c1)c1nccnc1-c1ccc(Br)cn1 (centres unmarked) [P29, N-[1-[3-(5-bromo-2-pyridyl)pyrazin-2-yl]ethyl]-3-cyclopropyl-5-(trifluoromethyl)benzamide]
≥ 80%: mortality at 500 ppm (Plutella xylostella [1]) | percent control (mortality or growth inhibition) at 200 ppm (Plutella xylostella [2])
